In patent US20130236441A1, “METHODS OF TREATING AND PREVENTING THROMBOTIC DISEASES USING ASK1 INHIBITORS” (University of Delaware, priority 2010, published 2013):

Legend:
[1] = system: WT or Ask1−/− mouse platelets; test: 14C-serotonin release (dense granule secretion) from agonist-stimulated mouse platelets; format: cell-based; settings: aspirin pretreatment
Protocol: (A) ^14C-serotonin-labeled platelets (2.5×10^8 per ml) from Ask1^+/+ and Ask1^−/− mice were stimulated with various concentration of thrombin for 5 min, and the ^14C-serotonin release was determined using a liquid scintillation counter. (B) Platelets from Ask1^+/+ and Ask1^−/− mice were stimulated with various concentrations of thrombin for 5 min and P-selectin exposure on the platelet surface was determined using flow cytometry. Granular secretion was assessed using WT or Ask1−/− mouse platelets in response to low and high dose of agonists such as thrombin (FIG. 7A) and thrombin/PAR4-peptide (AYPGKF) (FIG. 7B). Dense granule secretion was analyzed by measuring ^14C-serotonin release (FIG. 7A). α-granule secretion was assessed by P-selectin exposure using flow cytometry (FIG. 7B). Ask1 regulated a significant portion of dense granule secretion induced by high dose of thrombin (FIG. 7A). Similar results were obtained when P-selectin exposure was assessed as a measure of α-granule secretion (FIG. 7B).

[2] = system: ASK1; test: ASK1 T838 phosphorylation in thrombin-stimulated washed human platelets (Western blot); format: cell-based; settings: thrombin 0.05 U-1 U/ml
Protocol: Washed human platelets (2×10^8) were stimulated with thrombin (1 U/ml) for various time periods as indicated, and the lysates were Western blotted using phospho-specific antibodies against (A) ASK1, (B) MKK3 and P38, and (C) MKK4, and reprobed with corresponding antibodies against total proteins (Cell Signaling Technology, Inc.) to ensure relatively equal loading of ASK1, MKK3, P38 or MKK4 protein in each of its respective lanes.
A study was carried out to determine whether ASK1 was activated during agonist-induced platelet stimulation. A well-characterized antibody specific to the phosphorylated threonine 838 (T838) of ASK1 was used. […] Upon stimulation with as low as 0.05 U-1 U/ml of thrombin, ASK1 was activated rapidly and transiently as evidenced by phosphorylation of T838 (FIG. 3A). In a low percentage SDS-PAGE, ASK1 appeared as a doublet.

Compound | amount of serotonin released ([1]; Ask1−/− platelets) | amount of serotonin released ([1]; WT platelets) | ASK1 activation (phosphorylation of T838) [2]
CC(=O)Oc1ccccc1C(=O)O [aspirin] | no effect | reduced the amount of serotonin released to that of Ask1−/− platelets | –
thrombin | – | – | dose-dependently activated
